Ki data for one compound are collected here from BindingDB's records for doi:10.1016/s0960-894x(01)00493-0 (National Cancer Institute-Frederick, 2001).

For the assay, the target named is Urokinase-type plasminogen activator (Homo sapiens) (UniProt P00749). In words: Compound was tested for microPa) Urokinase-type plasminogen activator from human urine.

The term Ki denotes a measure of affinity in units of concentration, obtained from inhibition or displacement. Compound `CC[C@H](C)[C@@H]1NC(=O)[C@@H]2CCCN2C(=O)[C@@H]2CCCN2C(=O)[C@H]([C@@H](C)CC)NC(=O)[C@H](CO)NC(=O)[C@H](CCCCN)NC(=O)[C@H]([C@@H](C)O)NC(=O)[C@@H]2CSSC[C@H](NC1=O)C(=O)N[C@@H](Cc1ccccc1)C(=O)N1CCC[C@H]1C(=O)N[C@@H](CC(=O)O)C(=O)NCC(=O)N[C@@H](CCCNC(=N)N)C(=O)N2` showed an inhibition constant Ki of 500 µM.
